Results reported in patent US20250064968A1, “ANTIBODY-CONJUGATED CHEMICAL […] OF D[…] H[…] LINKERS AND METHODS THEREOF” (Genentech, Inc., priority 2022, published 2025).

Assays:
BRM = target: T1, BRM (Homo sapiens, UniProt P51531); experiment: Cell assays to determine DC50 and Dmax (nuclear BRM immunofluorescence after Ab-CIDE treatment); format: cell-based; parameters: DCmax (NCI-H1944): unit not given here; conditions: NCI-H1944 cells, 24 h drug treatment
T1 construct: endogenous in cells; host or cells: HCC515 and H1944 (NCI-H1944) cells
Protocol: HCC515 and H1944 cells were plated in 384 well plates at 4000 and 2500 cells/well, respectively. The next day Ab-CIDEs were added. Following 24 h of drug treatment the cells were fixed with […] for 15 minutes. The plates were washed three time with PBS. The cells were incubated with IF blocking solution ([…], 10% BSA, 0.1% Triton, 0.010% Azide, X-100 in PBS). After 1.5 h a 2× solution of primary antibody diluted in IF blocking buffer: BRM (Cell signaling Cat #11966, 1:2000) was added. The plates were incubated over night at 4° C. The following morning cells were washed three time with PBS. Cells were then incubated with secondary antibodies (rabbit-Alexa 488 A21206 (1:2000)) for 1 h at room temperature in the dark. Hoechst H3570 at 1:5000 was added to the wells and the plates were incubated for an additional 30 minutes. Plates were wash 3×PBS and image on Opera Phenix™ High Content Screening System. Using nuclear staining as a mask, nuclear BRM mean signal intensity was quantified.

[1] = Stability of antibody-conjugated L1-CIDE at high DAR (DAR 14 synthesis); format: physicochemical; conditions: antibody conjugate from DAR 14 synthesis
Description: The hydrolysable linkers therefore are able to provide an advantage in obtaining high DAR, which results in high numbers of CTDEs that can be attached to a single antibody.

[2] = Ab target TfR2, conjugate DAR 5.41-6.14
[3] = Ab target TfR2, high-DAR conjugate (DAR 13.13-13.75)

T1 sequence (P51531 whole entry): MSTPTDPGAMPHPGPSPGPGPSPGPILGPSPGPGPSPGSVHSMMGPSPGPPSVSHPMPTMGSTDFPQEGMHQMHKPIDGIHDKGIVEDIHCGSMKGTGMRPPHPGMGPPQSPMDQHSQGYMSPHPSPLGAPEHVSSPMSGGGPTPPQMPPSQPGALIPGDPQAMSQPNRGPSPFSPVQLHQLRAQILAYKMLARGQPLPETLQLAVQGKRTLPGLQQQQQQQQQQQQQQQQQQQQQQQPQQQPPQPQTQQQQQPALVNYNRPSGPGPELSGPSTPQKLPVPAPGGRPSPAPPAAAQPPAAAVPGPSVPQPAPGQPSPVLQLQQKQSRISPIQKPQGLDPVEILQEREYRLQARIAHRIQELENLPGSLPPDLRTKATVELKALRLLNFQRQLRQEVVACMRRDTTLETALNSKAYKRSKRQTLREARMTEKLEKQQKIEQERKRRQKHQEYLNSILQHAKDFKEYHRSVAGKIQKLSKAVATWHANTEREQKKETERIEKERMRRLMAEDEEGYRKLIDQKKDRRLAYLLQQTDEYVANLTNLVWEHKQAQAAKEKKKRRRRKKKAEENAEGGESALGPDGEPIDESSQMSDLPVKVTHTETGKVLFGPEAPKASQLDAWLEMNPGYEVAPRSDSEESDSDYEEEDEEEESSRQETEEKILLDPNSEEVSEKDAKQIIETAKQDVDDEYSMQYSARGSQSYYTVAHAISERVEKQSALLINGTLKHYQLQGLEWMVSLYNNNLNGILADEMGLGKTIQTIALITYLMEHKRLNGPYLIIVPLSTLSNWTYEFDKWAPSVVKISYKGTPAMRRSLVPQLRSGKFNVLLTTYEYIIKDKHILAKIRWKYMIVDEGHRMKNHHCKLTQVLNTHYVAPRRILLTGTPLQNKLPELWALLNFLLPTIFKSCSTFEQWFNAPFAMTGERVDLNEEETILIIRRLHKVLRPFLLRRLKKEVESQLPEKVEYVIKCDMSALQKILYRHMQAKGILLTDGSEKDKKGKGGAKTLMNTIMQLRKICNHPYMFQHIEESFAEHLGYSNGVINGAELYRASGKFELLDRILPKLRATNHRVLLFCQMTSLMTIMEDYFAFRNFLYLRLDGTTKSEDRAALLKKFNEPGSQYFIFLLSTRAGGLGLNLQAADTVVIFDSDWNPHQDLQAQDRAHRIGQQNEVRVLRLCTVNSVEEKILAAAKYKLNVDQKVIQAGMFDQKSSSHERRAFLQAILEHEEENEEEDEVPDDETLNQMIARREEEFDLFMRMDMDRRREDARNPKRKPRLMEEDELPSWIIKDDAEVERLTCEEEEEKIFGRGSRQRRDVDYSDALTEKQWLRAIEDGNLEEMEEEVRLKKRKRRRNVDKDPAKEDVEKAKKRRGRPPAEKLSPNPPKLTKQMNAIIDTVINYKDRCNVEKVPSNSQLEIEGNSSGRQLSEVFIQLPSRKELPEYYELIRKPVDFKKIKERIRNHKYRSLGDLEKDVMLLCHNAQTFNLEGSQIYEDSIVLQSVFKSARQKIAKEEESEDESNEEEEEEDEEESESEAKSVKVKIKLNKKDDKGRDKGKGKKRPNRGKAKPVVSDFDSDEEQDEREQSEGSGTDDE

| Structure (SMILES) | DC50 (BRM; [2]) [nM] | DCmax (NCI-H1944) (BRM; [2]) | DC50 (NCI-H1944) (BRM; [2]) [µg/mL] | DCmax (NCI-H1944) (BRM; [3]) | DC50 (BRM; Ab target TfR2, high-DAR conjugate (DAR 13.75)) [nM] | Stability [1] |
| --- | --- | --- | --- | --- | --- | --- |
| Cc1ncsc1-c1ccc([C@H](C)NC(=O)[C@@H]2C[C@@H](O)CN2C(=O)[C@@H](c2cc(OCCN3CCN(CCOc4cc(N5C6CCC5CN(c5cc(-c7ccccc7OCc7ccc(NC(=O)[C@H](CCCCN(C)C)NC(=O)C8(C(=O)NCCCCCNC(=O)[C@H](CO)N9C(=O)C=CC9=O)CCC8)cc7)nnc5N)C6)ccn4)[C@H](C)C3)no2)C(C)C)cc1.O=C(O)C(F)(F)F [Hy-B-CIDE-1] | 128 | 89 |  |  |  |  |
| COC[C@@H](C(=O)NCCCCCNC(=O)C1(C(=O)N[C@@H](CCCCN(C)C)C(=O)Nc2ccc(COc3ccccc3-c3cc(N4CC5CCC(C4)N5c4ccnc(OCCN5CCN(CCOc6cc([C@H](C(=O)N7C[C@H](O)C[C@H]7C(=O)N[C@@H](C)c7ccc(-c8scnc8C)cc7)C(C)C)on6)C[C@H]5C)c4)c(N)nn3)cc2)CCC1)N1C(=O)C=CC1=O.O=C(O)C(F)(F)F [Hy-B-CIDE-2] | 160 | 90 |  |  |  |  |
| Cc1ncsc1-c1ccc([C@H](C)NC(=O)[C@@H]2C[C@@H](O)CN2C(=O)[C@@H](c2cc(OCCN3CCN(CCOc4cc(N5C6CCC5CN(c5cc(-c7ccccc7OCc7ccc(NC(=O)[C@H](CCCCN(C)C)NC(=O)C8(C(=O)NCCN(C)CCN9C(=O)C=CC9=O)CCC8)cc7)nnc5N)C6)ccn4)[C@H](C)C3)no2)C(C)C)cc1.O=C(O)C(F)(F)F [Hy-B-CIDE-5] | 412 | 76 |  |  |  |  |
| Cc1ncsc1-c1ccc([C@H](C)NC(=O)[C@@H]2C[C@@H](O)CN2C(=O)[C@@H](c2cc(OCCN3CCN(CCOc4cc(N5C6CCC5CN(c5cc(-c7ccccc7OCc7ccc(NC(=O)[C@H](CCCCN(C)C)NC(=O)C8(C(=O)NCCCCCNC(=O)CN9C(=O)C=CC9=O)CCC8)cc7)nnc5N)C6)ccn4)[C@H](C)C3)no2)C(C)C)cc1.O=C(O)C(F)(F)F [Hy-B-CIDE-6] |  | 90 | 0.28 |  |  |  |
| CC(C)[C@@H](C(=O)N1C[C@H](O)C[C@H]1C(=O)N[C@@H](C)c1ccc(C#N)cc1)c1cc(OCCN2CCC(O[C@H]3C[C@H](Oc4cc(N5C6CCC5CN(c5cc(-c7ccccc7OCc7ccc(NC(=O)[C@H](CCCCN(C)C)NC(=O)C8(C(=O)NCCN(C)CCN9C(=O)C=CC9=O)CCC8)cc7)nnc5N)C6)ccn4)C3)CC2)no1 [Hy-B-CIDE-7] | 205 | 62 |  | 75 | 89.6 | Stable |
| Cc1ncsc1-c1ccc([C@H](C)NC(=O)[C@@H]2C[C@@H](O)CN2C(=O)[C@@H](c2cc(OCCN3CCN(CCOc4cc(N5C6CCC5CN(c5cc(-c7ccccc7OCc7ccc(NC(=O)[C@H](CCCCN(C)C)NC(=O)C8(C(=O)NCCCCCN(C)CCN9C(=O)C=CC9=O)CCC8)cc7)nnc5N)C6)ccn4)[C@H](C)C3)no2)C(C)C)cc1.O=C(O)C(F)(F)F [Hy-B-CIDE-8] | 85.6 | 74 |  |  |  |  |
| CC(C)[C@@H](C(=O)N1C[C@H](O)C[C@H]1C(=O)N[C@@H](C)c1ccc(C#N)cc1)c1cc(OCCN2CCC(O[C@H]3C[C@H](Oc4cc(N5C6CCC5CN(c5cc(-c7ccccc7O)nnc5NC(=O)OCc5ccc(NC(=O)[C@H](CCCCN(C)C)NC(=O)C7(C(=O)NCCCCCN(C)CCN8C(=O)C=CC8=O)CCC7)cc5)C6)ccn4)C3)CC2)no1.O=C(O)C(F)(F)F [Hy-B-CIDE-9] | 2200 | 82 |  |  |  |  |
| CC(C)[C@@H](C(=O)N1C[C@H](O)C[C@H]1C(=O)N[C@@H](C)c1ccc(C#N)cc1)c1cc(OCCN2CCC(O[C@H]3C[C@H](Oc4cc(N5C6CCC5CN(c5cc(-c7ccccc7O)nnc5NC(=O)OCc5ccc(NC(=O)[C@H](CCCCN(C)C)NC(=O)C7(C(=O)NCCCCCNC(=O)[C@H](CO)N8C(=O)C=CC8=O)CCC7)cc5)C6)ccn4)C3)CC2)no1 [Hy-B-CIDE-10] | 4440 | 80 |  |  |  |  |
| CC(C)[C@@H](C(=O)N1C[C@H](O)C[C@H]1C(=O)N[C@@H](C)c1ccc(C#N)cc1)c1cc(OCCN2CCC(O[C@H]3C[C@H](Oc4cc(N5C6CCC5CN(c5cc(-c7ccccc7OCc7ccc(NC(=O)[C@H](CCCCN(C)C)NC(=O)C8(C(=O)NCCCCCN(C)CCN9C(=O)C=CC9=O)CCC8)cc7)nnc5N)C6)ccn4)C3)CC2)no1 [Hy-B-CIDE-11] | 23200 | 53 |  |  |  |  |
| CC(C)[C@@H](C(=O)N1C[C@H](O)C[C@H]1C(=O)N[C@@H](C)c1ccc(C#N)cc1)c1cc(OCCN2CCC(O[C@H]3C[C@H](Oc4cc(N5C6CCC5CN(c5cc(-c7ccccc7OCc7ccc(NC(=O)[C@H](CCCCN(C)C)NC(=O)C8(C(=O)NCCCCCNC(=O)[C@H](CO)N9C(=O)C=CC9=O)CCC8)cc7)nnc5N)C6)ccn4)C3)CC2)no1 [Hy-B-CIDE-12] | 12600 | 60 |  |  |  |  |
| CC(C)[C@@H](C(=O)N1C[C@H](OP(=O)(O)O)C[C@H]1C(=O)N[C@@H](C)c1ccc(C#N)cc1)c1cc(OCCN2CCC(O[C@H]3C[C@H](Oc4cc(N5C6CCC5CN(c5cc(-c7ccccc7OCc7ccc(NC(=O)[C@H](CCCCN(C)C)NC(=O)C8(C(=O)NCCN(C)CCN9C(=O)C=CC9=O)CCC8)cc7)nnc5N)C6)ccn4)C3)CC2)no1 [Hy-B-PCIDE-2] |  |  |  | 42 |  | Stable |
